The compounds below were run against T1, human GABA A α5 receptor (α5β3γ2) (Homo sapiens, UniProt P18507+P31644) (assay: [3H]flumazenil competition binding assay, HEK293 cells expressing human receptors). Settings: displacement of [3H]flumazenil (0.5 nM); HEK293 cells transiently expressing human α5β3γ2; means of two determinations; read-out: hKi GABA A α5.
T1 construct: expressed in transfected cells; host or cells: HEK293 cells, transiently transfected; membranes prepared from cell pellets
Procedure: Membrane Preparation and Binding Assay
The affinity of compounds at GABA A receptor subtypes was measured by competition for [3H]flumazenil (85 Ci/mmol; Roche) binding to HEK293 cells expressing rat (stably transfected) or human (transiently transfected) receptors of composition α1β3γ2, α2β3γ2, α3β3γ2 and α5β3γ2.
Cell pellets were suspended in Krebs-tris buffer (4.8 mM KCl, 1.2 mM CaCl2, 1.2 mM MgCl2, 120 mM NaCl, 15 mM Tris; pH 7.5; binding assay buffer), homogenized by polytron for ca. 20 sec on ice and centrifuged for 60 min at 4° C. (50000 g; Sorvall, rotor: SM24=20000 rpm). The cell pellets were resuspended in Krebs-tris buffer and homogenized by polytron for ca. 15 sec on ice. Protein was measured (Bradford method, Bio-Rad) and aliquots of 1 mL were prepared and stored at −80° C.
Radioligand binding assays were carried out in a volume of […] (96-well plates) which contained […] of cell membranes, [3H]flumazenil at a concentration of 1 nM for α1, α2, α3 subunits and 0.5 nM for α5 subunits and the test compound in the range of […]. Nonspecific binding was defined by 10^−5 M diazepam and typically represented less than 5% of the total binding. Assays were incubated to equilibrium for 1 hour at 4° C. and harvested onto GF/C uni-filters (Packard) by filtration using a Packard harvester and washing with ice-cold wash buffer (50 mM Tris; pH 7.5). After drying, filter-retained radioactivity was detected by liquid scintillation counting. Ki values were calculated using Excel-Fit (Microsoft) and are the means of two determinations.
Representative test results, obtained by the above described assay measuring binding affinity to HEK293 cells expressing human (h) receptors, are shown in table 1 below: […]
A Ki of 14.1 nM was found for `CCCCc1noc(C)c1/C=C/c1ccc(C(=O)N[C@@H](C)CO)cn1` [Example 14, 6-[(E)-2-(3-Butyl-5-methyl-isoxazol-4-yl)-vinyl]-N—((S)-2-hydroxy-1-methyl-ethyl)-nicotinamide] in this work. A Ki of 8.2 nM was found for `CCCCc1noc(C)c1/C=C/c1ccc(C(=O)NC(C)CO)cn1` (stereo not drawn) [Example 10, 6-[(E)-2-(3-Butyl-5-methyl-isoxazol-4-yl)-vinyl]-N-(2-hydroxy-1-methyl-ethyl)-nicotinamide] in this work. A Ki of 8.9 nM was found for `CCCCc1noc(C)c1/C=C/c1ccc(C(=O)NC2CCOC2)cn1` (stereo not drawn) [Example 9, 6-[(E)-2-(3-Butyl-5-methyl-isoxazol-4-yl)-vinyl]-N-(tetrahydro-furan-3-yl)-nicotinamide] in this work. A Ki of 16.3 nM was found for `CCCCc1noc(C)c1/C=C/c1ccc(C(=O)NCC(C)(C)O)cn1` [Example 11, 6-[(E)-2-(3-Butyl-5-methyl-isoxazol-4-yl)-vinyl]-N-(2-hydroxy-2-methyl-propyl)-nicotinamide] in this work. A Ki of 5.3 nM was found for `CCCCc1noc(C)c1/C=C/c1ccc(C(=O)NC(CO)CO)cn1` [Example 15, 6-[(E)-2-(3-Butyl-5-methyl-isoxazol-4-yl)-vinyl]-N-(2-hydroxy-1-hydroxymethyl-ethyl)-nicotinamide] in this work. A Ki of 18.6 nM was found for `CCCCc1noc(C)c1/C=C/c1ccc(C(=O)NC(C)C)cn1` [Example 8, 6-[(E)-2-(3-Butyl-5-methyl-isoxazol-4-yl)-vinyl]-N-isopropyl-nicotinamide] in this work. A Ki of 8.1 nM was found for `CCCCc1noc(C)c1/C=C/c1ccc(C(=O)OC)cn1` [Example 7, 6-[(E)-2-(3-Butyl-5-methyl-isoxazol-4-yl)-vinyl]nicotinic acid methyl ester] in this work. A Ki of 38.6 nM was found for `Cc1onc(-c2ccccc2)c1/C=C/c1ccc(C(=O)O)cn1` [Example 6, 6-[(E)-2-(5-Methyl-3-phenyl-isoxazol-4-yl)-vinyl]-nicotinic acid] in this work. A Ki of 57.6 nM was found for `Cc1onc(-c2ccccc2)c1CCc1ccc(C(=O)NC(C)C)cn1` [Example 16, N-Isopropyl-6-[2-(5-methyl-3-phenyl-isoxazol-4-yl)-ethyl]-nicotinamide] in this work. A Ki of 2 nM was found for `Cc1onc(-c2ccccc2)c1/C=C/c1ccc(C(=O)NCCO)cn1` [Example 4, N-(2-Hydroxy-ethyl)-6-[(E)-2-(5-methyl-3-phenyl-isoxazol-4-yl)-vinyl]-nicotinamide] in this work. A Ki of 6 nM was found for `Cc1onc(-c2ccccc2)c1/C=C/c1ccc(C(=O)NC2CCOCC2)cn1` [Example 3, 6-[(E)-2-(5-Methyl-3-phenyl-isoxazol-4-yl)-vinyl]-N-(tetrahydro-pyran-4-yl)-nicotinamide] in this work. A Ki of 49.4 nM was found for `CCCCc1noc(C)c1CCc1ccc(C(=O)NC(C)CO)cn1` (stereo not drawn) [Example 17, 6-[2-(3-Butyl-5-methyl-isoxazol-4-yl)-ethyl]-N-(2-hydroxy-1-methyl-ethyl)-nicotinamide] in this work. A Ki of 13.9 nM was found for `COC(=O)c1ccc(/C=C/c2c(-c3ccccc3)noc2C)nc1` [Example 1, 6-[(E)-2-(5-Methyl-3-phenyl-isoxazol-4-yl)-vinyl]nicotinic acid methyl ester] in this work. A Ki of 12.9 nM was found for `CCCCc1noc(C)c1/C=C/c1ccc(C(=O)NC2CCOCC2)cn1` [Example 12, 6-[(E)-2-(3-Butyl-5-methyl-isoxazol-4-yl)-vinyl]-N-(tetrahydro-pyran-4-yl)-nicotinamide] in this work. A Ki of 5 nM was found for `Cc1onc(-c2ccccc2)c1/C=C/c1ccc(C(=O)NC(C)C)cn1` [Example 2, N-Isopropyl-6-[(E)-2-(5-methyl-3-phenyl-isoxazol-4-yl)-vinyl]-nicotinamide] in this work. A Ki of 12.2 nM was found for `CCCCc1noc(C)c1/C=C/c1ccc(C(=O)N[C@H](C)CO)cn1` [Example 13, 6-[(E)-2-(3-Butyl-5-methyl-isoxazol-4-yl)-vinyl]-N—((R)-2-hydroxy-1-methyl-ethyl)-nicotinamide] in this work. A Ki of 2.9 nM was found for `Cc1onc(-c2ccccc2)c1/C=C/c1ccc(C(=O)NC(C)CO)cn1` (stereo not drawn) [Example 5, N-(2-Hydroxy-1-methyl-ethyl)-6-[(E)-2-(5-methyl-3-phenyl-isoxazol-4-yl)-vinyl]-nicotinamide] in this work. A Ki of 58.6 nM was found for `CCCCc1noc(C)c1CCc1ccc(C(=O)NC2CCOC2)cn1` (stereo not drawn) [Example 18, 6-[2-(3-Butyl-5-methyl-isoxazol-4-yl)-ethyl]-N-(tetrahydro-furan-3-yl)-nicotinamide] in this work.

— patent US8389550B2, “Isoxazoles / O-pyridines with ethyl and ethenyl linker” (Hoffmann-La Roche Inc., priority 2009, dated 2013)
